# Source: patent publication US20100197591A1, “4-AMINO-7,8-DIHYDROPYRIDO[4,3-d]PYRIMIDIN-5(6H)-ONE DERIVATIVES” (pfizer Inc, priority 2009, published 2010)
# Columns and labels:
# Assay type in all cases: biochemical
# [1] = biological target: T1, Human full-length diacylglycerol:acylCoA acyltransferase 1 (DGAT-1) (Homo sapiens, UniProt O75907); assay: DGAT-1 Reduced Microsome Multidose Assay, G7329F Human IC50; details: crude membrane fraction of Sf9 cells expressing human DGAT-1; [14C]decanoylCoA; apparent IC50, average where tested more than once
# T1 construct: Human full-length diacylglycerol:acylCoA acyltransferase 1 (DGAT-1) was expressed in Sf9 insect cells; made in house; host or cells: Sf9 insect cells (baculovirus); crude membrane/microsome fraction
# T1 sequence (O75907 1-488): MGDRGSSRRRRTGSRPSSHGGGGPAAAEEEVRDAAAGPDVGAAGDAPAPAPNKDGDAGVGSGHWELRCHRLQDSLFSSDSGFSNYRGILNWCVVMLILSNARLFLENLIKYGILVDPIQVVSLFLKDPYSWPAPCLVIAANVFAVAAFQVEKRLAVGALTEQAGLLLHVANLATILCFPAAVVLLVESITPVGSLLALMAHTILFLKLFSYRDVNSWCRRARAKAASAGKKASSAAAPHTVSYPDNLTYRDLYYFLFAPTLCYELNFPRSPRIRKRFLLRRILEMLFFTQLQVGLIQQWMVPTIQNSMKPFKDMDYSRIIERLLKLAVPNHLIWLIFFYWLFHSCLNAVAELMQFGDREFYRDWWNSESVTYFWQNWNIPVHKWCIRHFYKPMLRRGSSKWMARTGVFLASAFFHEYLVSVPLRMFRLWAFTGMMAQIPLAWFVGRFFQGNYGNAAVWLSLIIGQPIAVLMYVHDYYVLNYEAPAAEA
# Outline: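 Sf9-expressed full-length DGAT-1 microsomes (25 or 5 μg/mL) with incorporated 1,2-dioleoyl-sn-glycerol (75 μM), pH 7.5 Hepes, 20 μM [14C]decanoylCoA, 2.5% DMSO, inhibitor pre-incubated. Eight (3 nM–10 μM) or eleven concentrations; 14C product by scintillation gives apparent IC50, averaged over repeats.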
# [2] = biological target: T1, Human full-length diacylglycerol:acylCoA acyltransferase 1 (DGAT-1); assay: DGAT-1 Reduced Microsome Multidose Assay, G7829E Human IC50; details: crude membrane fraction of Sf9 cells expressing human DGAT-1; [14C]decanoylCoA; terminated with 5 μl of 1.4% phosphoric acid instead of HCl; average where tested more than once
# Procedure: (§1) Human full-length diacylglycerol:acylCoA acyltransferase 1 (DGAT-1) was expressed in Sf9 insect cells which are then lysed and a crude membrane fraction (105,000×g pellet) was prepared. The DGAT-1 gene is a human DGAT-1 gene described in J Biol Chem 273:26765 (1998) and U.S. Pat. No. 6,100,077.
# (§2) In vitro inhibition of DGAT-1 was measured using a modification, further described below, of the assay methodology described in U.S. Pat. No. 6,994,956 B2.
# (§3) The cells were cultured as follows. Sf9 cells (20 L) were infected with 4 mL of DGAT-1 Baculovirus Infected Insect Cells (BIIC) for 72 hours in a Wave Bioreactor System 20/50P (Wave Biotec/GE Healthcare).
# (§4) Crude DGAT-1 microsomes were prepared as follows. Cell pellets were washed once with ice-cold Dulbecco's phosphate-buffered saline. Cells were collected in tabletop centrifuge (Beckman GS-6KR), 15 minutes, 2000×g, 4° C. Twenty (20) mL of ice-cold Microsome Buffer (MB) was added per 5 g of cell pellet. The suspension was passed through a microfluidizer 3 times (18K psi). The lysate was transferred to centrifuge tubes and centrifuged for 20 minutes at 5000×g (Beckman-Coulter, Inc. Allegra® 64R High-Speed Refrigerated Benchtop Centrifuge, F0650 rotor) at 4° C. The supernatant was transferred to ultracentrifuge tubes and centrifuged at 125,000×g for 1 hour in a Beckman Ti-45 rotor, 4° C. The supernatant fluid was discarded. The pellet was resuspended in 70 mL of MB by sonication. The microsome concentration was determined using Bio-Rad Protein DC Protein Assay. The microsomes were filter sterilized with a 0.22 μm filter. The samples were portioned, flash frozen and stored at −80° C.
# (§5) The Microsome Buffer, used for microsome preparation, was prepared by conventional means and contained 125 mM sucrose, 3 mM imidazole, 0.2 μg/mL aprotinin, 0.2 μg/mL leupeptin and 5 mM dithiothreitol (Cleland's reagent), DGAT-1 activity was measured in 384-well format in a total assay volume of 25 μl that contained, Hepes buffer (50 mM, pH 7.5), MgCl2 (10 mM), bovine serum albumin (0.6 mg/ml), [^14C]decanoylCoA (20 μM, 58 Ci/mol) and membranes (25 μg/ml) into which 1,2 dioleoyl-sn-glycerol (75 μM) in acetone has already been incorporated. Inhibitors in DMSO were pre-incubated with membranes before initiating the DGAT-1 reaction by the addition of decanoylCoA. […] The DMSO concentration was 2.5%. The inhibitors were present at a range of eight concentrations to generate an apparent IC50 for each compound. The eight inhibitor concentration employed ranged from 10 μM to 3 nM (from high to low concentration). Specifically, the eight concentrations used were 10 μM, 3 μM, 1 μM, 300 nM, 100 nM, 30 nM, 10 nM and 3 nM.
# (§6) Reaction mixtures were neutralized by the addition of 15 μl of tris(hydroxy-methyl)aminomethane (1M, pH 8.0) and then mixed by trituration with 37.5 μl of Microscint™-E (Perkin Elmer). Plates contents were allowed to partition for 15 to 30 min before ^14C was measured in a scintillation spectrometer (Wallac Microbeta Trilux 1450-030 liquid scintillation counter 12 detector in the top-count DPM mode). Percent inhibition of test compounds was computed as 100-((DPM DMSO uninhibited-DPM test compound)/(DPM DMSO uninhibited)).
# Four separate assays were performed using 4 different methods of analysis. The method of analysis of Assay 1 was the same as Assay 4 (described above) except microsomes were utilized at 25 μg/mL instead of 5 μg/mL. The method of analysis of Assay 2 was the same as Assay 4 (described above) except eleven (11) concentrations of inhibitor were employed instead of eight (8). The method of analysis of Assay 3 was the same as Assay 2 except the compounds were serially diluted in a different laboratory.
# Where this DGAT-1 inhibition assay was performed on a compound more than once, an average is provided for that compound.
# [3] = biological target: T1, Human full-length diacylglycerol:acylCoA acyltransferase 1 (DGAT-1); assay: DGAT-1 Reduced Microsome Multidose Assay, G7329E Human IC50; details: crude membrane fraction of Sf9 cells expressing human DGAT-1; [14C]decanoylCoA; apparent IC50, average where tested more than once
# Procedure: as §1, §2, §3, §4, §5, §6
# Four separate assays were performed using 4 different methods of analysis. The method of analysis of Assay 1 was the same as Assay 4 (described above) except microsomes were utilized at 25 μg/mL instead of 5 μg/mL. […]
# [4] = biological target: T1, Human full-length diacylglycerol:acylCoA acyltransferase 1 (DGAT-1); assay: DGAT-1 Reduced Microsome Multidose Assay, G7329B Human IC50; details: crude membrane fraction of Sf9 cells expressing human DGAT-1; [14C]decanoylCoA; apparent IC50, average where tested more than once
# Procedure: as §1, §2, §3
# Crude DGAT-1 microsomes were prepared as follows. Cell pellets were washed once with ice-cold Dulbecco's phosphate-buffered saline. Cells were collected in tabletop centrifuge (Beckman GS-6KR), 15 minutes, 2000×g, 4° C. Twenty (20) mL of ice-cold Microsome Buffer (MB) was added per 5 g of cell pellet. The suspension was passed through a microfluidizer 3 times (18K psi). […] The microsome concentration was determined using Bio-Rad Protein DC Protein Assay. […]
# The Microsome Buffer, used for microsome preparation, was prepared by conventional means and contained 125 mM sucrose, 3 mM imidazole, 0.2 μg/mL aprotinin, 0.2 μg/mL leupeptin and 5 mM dithiothreitol (Cleland's reagent), DGAT-1 activity was measured in 384-well format in a total assay volume of 25 μl that contained, Hepes buffer (50 mM, pH 7.5), MgCl2 (10 mM), bovine serum albumin (0.6 mg/ml), [^14C]decanoylCoA (20 μM, 58 Ci/mol) and membranes (25 μg/ml) into which 1,2 dioleoyl-sn-glycerol (75 μM) in acetone has already been incorporated. […]
# as §6, with “Percent inhibition of test compounds was computed as 100-((DPM DMSO uninhibited-DPM test compound)/(DPM DMSO uninhibited)).” left out
IC50 [1] [µM],IC50 [2] [µM],IC50 [3] [µM],IC50 [4] [µM],Structure (SMILES)
0.0325,–,0.133,–,"COc1nc(N)c2c(n1)CCN(c1ccc([C@H]3CC[C@H](CC#N)CC3)cc1)C2=O [Example 7C, {trans-4-[4-(4-amino-2-methoxy-5-oxo-7,8-dihydropyrido[4,3-d]pyrimidin-6(5H)-yl)phenyl]cyclohexyl}acetonitrile]"
–,–,0.124,–,"COc1nc(N)c2c(n1)CCN(c1ccc(I)cc1)C2=O [Example 9E, 4-amino-6-(4-iodophenyl)-2-methoxy-7,8-dihydropyrido[4,3-d]pyrimidin-5(6H)-one]"
–,1.38,–,–,"COc1nc(N)c2c(n1)CCN(c1ccc3c(c1)CC(C)(C)O3)C2=O [Example 9M, 4-amino-6-(2,2-dimethyl-2,3-dihydro-1-benzofuran-5-yl)-2-methoxy-7,8-dihydropyrido[4,3-d]pyrimidin-5(6H)-one]"
–,–,13.7,5.03,"Cc1nc(N)c2c(n1)CCN(c1ccc(I)cc1)C2=O [Example 9Q, 4-amino-6-(4-iodophenyl)-2-methyl-7,8-dihydropyrido[4,3-d]pyrimidin-5(6H)-one]"
–,–,–,1.03,"Cc1nc(N)c2c(n1)CCN(c1ccc(C3CCC(CCO)CC3)cc1)C2=O (stereo not drawn) [Example 9R, 4-amino-6-{4-[4-(2-hydroxyethyl)cyclohexyl]phenyl}-2-methyl-7,8-dihydropyrido[4,3-d]pyrimidin-5(6H)-one]"
–,–,–,1.89,"Cc1nc(N)c2c(n1)CCN(c1ccc(C3CCC(CC#N)CC3)cc1)C2=O (stereo not drawn) [Example 9T, {4-[4-(4-amino-2-methyl-5-oxo-7,8-dihydropyrido[4,3-d]pyrimidin-6(5H)-yl)phenyl]cyclohexyl}acetonitrile]"

# The remaining lines, values behind:
Structure (SMILES),IC50 [1] [µM],IC50 [2] [µM],IC50 [3] [µM],IC50 [4] [µM]
"COc1nc(N)c2c(n1)CCN(c1ccc(C(C)(C)c3ncno3)cc1)C2=O (single isomer, unassigned) [Example 3L]",0.0689,0.0673,–,–
"COc1nc(N)c2c(n1)CCN(c1ccc(C(C)(C)c3ncon3)cc1)C2=O (single isomer, unassigned) [Example 3M, 4-amino-2-methoxy-6-{4-[1-methyl-1-(1,2,4-oxadiazol-3-yl)ethyl]phenyl}-7,8-dihydropyrido[4,3-d]pyrimidin-5(6H)-one]",0.0778,0.0552,–,–
"COc1nc(N)c2c(n1)CCN(c1ccc(C(=O)OCC(C)(C)C)cc1)C2=O [Example 2F, 2,2-dimethylpropyl 4-(4-amino-2-methoxy-5-oxo-7,8-dihydropyrido[4,3-d]pyrimidin-6(5H)-yl)benzoate]",0.112,0.0551,–,–
"COc1nc(N)c2c(n1)CCN(c1ccc(C(C)(C)c3nnn(C)n3)cc1)C2=O [Example 3R, 4-amino-2-methoxy-6-{4-[1-methyl-1-(2-methyl-2H-tetrazol-5-yl)ethyl]phenyl}-7,8-dihydropyrido[4,3-d]pyrimidin-5(6H)-one]",–,0.0211,–,–
"COc1nc(N)c2c(n1)CCN(c1ccc(C(C)(C)CNC(=O)OC(C)(C)C)cc1)C2=O [Example 3T, tert-butyl {2-[4-(4-amino-2-methoxy-5-oxo-7,8-dihydropyrido[4,3-d]pyrimidin-6(5H)-yl)phenyl]-2-methylpropyl}carbamate]",–,0.0196,–,–
"COc1nc(N)c2c(n1)CCN(c1ccc(C3(C#N)CCC3)cc1)C2=O [Example 4A, 1-[4-(4-amino-2-methoxy-5-oxo-7,8-dihydropyrido[4,3-d]pyrimidin-6(5H)-yl)phenyl]cyclobutanecarbonitrile]",–,0.0207,–,–
"COc1nc(N)c2c(n1)CCN(c1ccc(C3(C(N)=O)CCC3)cc1)C2=O [Example 5A, 1-[4-(4-amino-2-methoxy-5-oxo-7,8-dihydropyrido[4,3-d]pyrimidin-6(5H)-yl)phenyl]cyclobutanecarboxamide]",–,0.0786,–,–
"COc1nc(N)c2c(n1)CCN(c1ccc(C3(C(N)=O)CCCCC3)cc1)C2=O [Example 5B, 1-[4-(4-amino-2-methoxy-5-oxo-7,8-dihydropyrido[4,3-d]pyrimidin-6(5H)-yl)phenyl]cyclohexanecarboxamide]",–,0.184,–,–
"COc1nc(N)c2c(n1)CCN(c1ccc(C3(C(N)=O)CCCC3)cc1)C2=O [Example 5C, 1-[4-(4-amino-2-methoxy-5-oxo-7,8-dihydropyrido[4,3-d]pyrimidin-6(5H)-yl)phenyl]cyclopentanecarboxamide]",–,0.217,–,–
"COc1nc(N)c2c(n1)CCN(c1ccc(C(C)(C)C)cc1)C2=O [Example 6A, 4-amino-6-(4-tert-butylphenyl)-2-methoxy-7,8-dihydropyrido[4,3-d]pyrimidin-5(6H)-one]",0.00888,–,0.049,–
"COc1nc(N)c2c(n1)CCN(c1ccc(C(C)C)cc1)C2=O [Example 6E, 4-amino-6-(4-isopropylphenyl)-2-methoxy-7,8-dihydropyrido[4,3-d]pyrimidin-5(6-H)-one]",0.0171,–,0.0585,–
